Measured values as given in PubChem BioAssay AID330 (DTP/NCI, 2004).
Where “and” joins values, the source holds several entries; their conditions need not be identical. Equal values may be shown once. Inconclusive results and toxic doses are left out.

System: P388 leukemia ip, CD2F1 mice, survival T/C
Assay: NCI In Vivo Anticancer Drug Screen. Data for tumor model P388 Leukemia (intraperitoneal) in CD2F1 (CDF1) mice
Settings: higher = longer survival
Outline: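 Mice carrying the transplanted tumor received test compound or vehicle. Survival was recorded in each group, and the value is the treated-group measurement divided by that of the vehicle-treated control group.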

[1] = endpoint: median survival time, dose: 50.0 mg/kg/injection, schedule: Q01DX009 (ip), vehicle: saline with Tween-80
[2] = endpoint: median survival time, dose: 100.0 mg/kg/injection, schedule: Q01DX009 (ip), vehicle: saline with Tween-80
[3] = endpoint: median survival time, dose: 200.0 mg/kg/injection, schedule: Q01DX009 (ip), vehicle: saline with Tween-80

Compound: CSCCc1nc(C)oc1C
- T/C [1]: 94 % of control
- T/C [2]: 100 % of control
- T/C [3]: 102 % of control

Compound: S=P(Oc1cc(Cl)cc(Cl)c1)(Oc1cc(Cl)cc(Cl)c1)Oc1cc(Cl)cc(Cl)c1
- T/C (endpoint: median survival time, dose: 50.0 mg/kg/injection, schedule: Q01DX005 (ip), vehicle: Klucel (hydroxypropylcellulose) (HPC)): 97 % of control
- T/C (endpoint: median survival time, dose: 100.0 mg/kg/injection, schedule: Q01DX005 (ip), vehicle: Klucel (hydroxypropylcellulose) (HPC)): 100 % of control
- T/C (endpoint: median survival time, dose: 200.0 mg/kg/injection, schedule: Q01DX005 (ip), vehicle: Klucel (hydroxypropylcellulose) (HPC)): 100 % of control

Compound: Cc1cc(O)c(Cl)cc1Cl
- T/C (endpoint: median survival time, dose: 100.0 mg/kg/injection, schedule: Q01DX009 (ip), vehicle: saline): 100 % of control
- T/C (endpoint: median survival time, dose: 200.0 mg/kg/injection, schedule: Q01DX009 (ip), vehicle: saline): 99 % of control
- T/C (endpoint: median survival time, dose: 400.0 mg/kg/injection, schedule: Q01DX009 (ip), vehicle: saline): 97 % of control

Compound: N#C/C=C/C#N
- T/C (endpoint: median survival time, dose: 0.15 mg/kg/injection, schedule: Q01DX009 (ip), vehicle: saline): 100 % of control
- T/C (endpoint: median survival time, dose: 0.3 mg/kg/injection, schedule: Q01DX009 (ip), vehicle: saline): 109 % of control
- T/C (endpoint: median survival time, dose: 0.6 mg/kg/injection, schedule: Q01DX009 (ip), vehicle: saline): 113 % of control

Compound: C=Cn1c([N+](=O)[O-])cnc1/C=C/c1ccc(C(=O)OCCN2CCOCC2)cc1
- T/C (endpoint: median survival time, dose: 25.0 mg/kg/injection, schedule: Q04DX002 (ip), vehicle: saline with Tween-80): 101 % of control
- T/C (endpoint: median survival time, dose: 50.0 mg/kg/injection, schedule: Q04DX002 (ip), vehicle: saline with Tween-80): 101 % of control
- T/C (endpoint: median survival time, dose: 100.0 mg/kg/injection, schedule: Q04DX002 (ip), vehicle: saline with Tween-80): 103 % of control and 90 % of control

Compound: CCCCCCCCCCCCCCCC[N+](C)(C)CCSCC(N)=O
- T/C (endpoint: median survival time, dose: 12.5 mg/kg/injection, schedule: Q04DX003 (ip), vehicle: saline): 109 % of control
- T/C (endpoint: median survival time, dose: 50.0 mg/kg/injection, schedule: Q04DX003 (ip), vehicle: saline): 111 % of control and 121 % of control

Compound: COc1cc2ccc3c4cc(OC)c(OC)cc4c[n+](C)c3c2cc1O
- T/C (endpoint: median survival time, dose: 50.0 mg/kg/injection, schedule: Q04DX009 (ip), vehicle: Klucel (hydroxypropylcellulose) (HPC)): 117 % of control
- T/C (endpoint: median survival time, dose: 100.0 mg/kg/injection, schedule: Q04DX009 (ip), vehicle: Klucel (hydroxypropylcellulose) (HPC)): 122 % of control

Compound: CS(=O)(=O)OCCCN(CCCOS(C)(=O)=O)CCCN1CCOCC1
- T/C (endpoint: mean survival time, dose: 20.0 mg/kg/injection, schedule: Q01DX009 (ip), vehicle: saline): 247 % of control
- T/C (endpoint: mean survival time, dose: 40.0 mg/kg/injection, schedule: Q01DX009 (ip), vehicle: saline): 238 % of control
- T/C (endpoint: mean survival time, dose: 60.0 mg/kg/injection, schedule: Q01DX009 (ip), vehicle: saline): 263 % of control
- T/C (endpoint: median survival time, dose: 20.0 mg/kg/injection, schedule: Q01DX009 (ip), vehicle: saline): 227 % of control
- T/C (endpoint: median survival time, dose: 40.0 mg/kg/injection, schedule: Q01DX009 (ip), vehicle: saline): 222 % of control
- T/C (endpoint: median survival time, dose: 60.0 mg/kg/injection, schedule: Q01DX009 (ip), vehicle: saline): 254 % of control

Compound: O=C(NC(Cc1ccccc1)C(=O)O)OCCc1ccccn1 (configuration not stated)
- T/C (endpoint: median survival time, dose: 60.0 mg/kg/injection, schedule: Q01DX005 (ip), vehicle: Klucel (hydroxypropylcellulose) (HPC)): 104 % of control
- T/C (endpoint: median survival time, dose: 120.0 mg/kg/injection, schedule: Q01DX005 (ip), vehicle: Klucel (hydroxypropylcellulose) (HPC)): 92 % of control
- T/C (endpoint: median survival time, dose: 240.0 mg/kg/injection, schedule: Q01DX005 (ip), vehicle: Klucel (hydroxypropylcellulose) (HPC)): 102 % of control

Compound: CCOc1cc2c(cc1C(CC(=O)O)c1ccc(OC)cc1)OCO2 (configuration not stated)
- T/C (endpoint: median survival time, dose: 50.0 mg/kg/injection, schedule: Q01DX005 (ip), vehicle: distilled water + Tween-80): 101 % of control
- T/C (endpoint: median survival time, dose: 100.0 mg/kg/injection, schedule: Q01DX005 (ip), vehicle: distilled water + Tween-80): 92 % of control
- T/C (endpoint: median survival time, dose: 200.0 mg/kg/injection, schedule: Q01DX005 (ip), vehicle: distilled water + Tween-80): 90 % of control

Compound: CCCc1c(C)nc2scc(-c3ccc(Cl)cc3)n2c1=O
- T/C [1]: 96 % of control
- T/C [2]: 98 % of control
- T/C [3]: 96 % of control

Compound: O=[N+]([O-])O.[Cl-].[Cl-].[NH-]CC[NH-].[NH-]CC[NH-].[Rh+3]
- T/C (endpoint: median survival time, dose: 12.5 mg/kg/injection, schedule: Q04DX003 (ip), vehicle: distilled water + Tween-80): 106 % of control
- T/C (endpoint: median survival time, dose: 25.0 mg/kg/injection, schedule: Q04DX003 (ip), vehicle: distilled water + Tween-80): 99 % of control
- T/C (endpoint: median survival time, dose: 50.0 mg/kg/injection, schedule: Q04DX003 (ip), vehicle: distilled water + Tween-80): 108 % of control
- T/C (endpoint: median survival time, dose: 100.0 mg/kg/injection, schedule: Q04DX003 (ip), vehicle: distilled water + Tween-80): 111 % of control
- T/C (endpoint: median survival time, dose: 200.0 mg/kg/injection, schedule: Q04DX003 (ip), vehicle: distilled water + Tween-80): 102 % of control

Compound: Cn1c(=O)c2c(CCCC(=O)O)onc2n(C)c1=O
- T/C (endpoint: median survival time, dose: 25.0 mg/kg/injection, schedule: Q01DX009 (ip), vehicle: saline with Tween-80): 96 % of control
- T/C [1]: 93 % of control
- T/C [2]: 90 % of control
